From PubChem BioAssay (NCI)
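The concentration for 50% growth inhibition is given as GI50. TGI denotes the concentration required for complete inhibition of growth.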

Experiments:
Assay in all cases: DTP human tumour cell line panel, 384-well format
[1] = system: NCI-H226 lung
[2] = system: SF-295 CNS
[3] = system: DU-145 prostate
[4] = system: OVCAR-4 ovarian
[5] = system: MALME-3M melanoma
[6] = system: HOP-92 NSCLC
[7] = system: SF-268 CNS
[8] = system: RXF 393 renal
[9] = system: HOP-62 NSCLC
[10] = system: SNB-19 CNS
[11] = system: MCF7 breast
[12] = system: SF-539 CNS
[13] = system: NCI/ADR-RES ovarian
[14] = system: KM12 colon
[15] = system: SK-OV-3 ovarian
[16] = system: A498 renal
[17] = system: MOLT-4 leukemia
[18] = system: CAKI-1 renal
[19] = system: CCRF-CEM leukemia
[20] = system: BT-549 breast
[21] = system: MDA-MB-435 melanoma
[22] = system: HCC-2998 colon
[23] = system: A549 NSCLC
[24] = system: COLO 205 colon
[25] = system: M14 melanoma
[26] = system: HS 578T breast
[27] = system: SK-MEL-28 melanoma
[28] = system: NCI-H460 NSCLC
[29] = system: MDA-MB-468 breast
[30] = system: U251 glioblastoma
[31] = system: 786-0 renal
[32] = system: IGROV1 ovarian
[33] = system: SN12C renal
[34] = system: MDA-MB-231 breast
[35] = system: UACC-62 melanoma
[36] = system: SK-MEL-5 melanoma
[37] = system: RPMI-8226 leukemia
[38] = system: NCI-H522 lung
[39] = system: HT29 colon
[40] = system: HCT-15 colon
[41] = system: HCT-116 colon
[42] = system: NCI-H23 lung
[43] = system: OVCAR-5 ovarian
[44] = system: OVCAR-8 ovarian
[45] = system: T-47D breast
[46] = system: SW-620 colon
[47] = system: HL-60(TB) leukemia
[48] = system: UACC-257 melanoma
[49] = system: SK-MEL-2 melanoma
[50] = system: TK-10 renal
[51] = system: K-562 leukemia
[52] = system: PC-3 prostate
[53] = system: SNB-75 CNS
[54] = system: EKVX NSCLC
[55] = system: OVCAR-3 ovarian
[56] = system: NCI-H322M lung
[57] = system: SR leukemia
[58] = system: ACHN renal

C[C@@]1(c2ncncc2F)NC(=O)c2cc(-c3cn[nH]c3)ccc21
GI50 [1]: 18.4 µM | TGI [1]: 60.7 µM | GI50 [2]: 28.5 µM | TGI [2]: > 85 µM | GI50 [3]: 16.2 µM | TGI [3]: > 100 µM | GI50 [4]: 42 µM | TGI [4]: 88.8 µM | GI50 [5]: 2.77 µM | TGI [5]: 14.4 µM | GI50 [6]: 19.4 µM | TGI [6]: 47.5 µM | GI50 [7]: 13 µM | TGI [7]: 31 µM | GI50 [8]: 25.3 µM | TGI [8]: 42.4 µM | GI50 [9]: 16 µM | TGI [9]: 50.8 µM | GI50 [10]: 28.8 µM | TGI [10]: > 100 µM | GI50 [11]: 26.6 µM | TGI [11]: > 83 µM | GI50 [12]: 12.1 µM | TGI [12]: 29.1 µM | GI50 [13]: 62.6 µM | TGI [13]: > 100 µM | GI50 [14]: 15.8 µM | TGI [14]: 35.1 µM | GI50 [15]: 28.9 µM | TGI [15]: > 71.3 µM | GI50 [16]: 10.9 µM | TGI [16]: > 92 µM | GI50 [17]: 13.8 µM | TGI [17]: 27.8 µM | GI50 [18]: 20.1 µM | TGI [18]: 63.4 µM | GI50 [19]: 2.74 µM | TGI [19]: 7.58 µM | GI50 [20]: 9.62 µM | TGI [20]: 24.2 µM | GI50 [21]: 15.7 µM | TGI [21]: 38.3 µM | GI50 [22]: 12.6 µM | TGI [22]: 34.3 µM | GI50 [23]: 17.3 µM | TGI [23]: > 100 µM | GI50 [24]: 2.01 µM | TGI [24]: 4.03 µM | GI50 [25]: 5.45 µM | TGI [25]: 22 µM | GI50 [26]: 18.4 µM | TGI [26]: 35.2 µM | GI50 [27]: 11.8 µM | TGI [27]: 27.6 µM | GI50 [28]: 15.5 µM | TGI [28]: 41.6 µM | GI50 [29]: 5.03 µM | TGI [29]: 14.4 µM | GI50 [30]: 11.1 µM | TGI [30]: 48.4 µM | GI50 [31]: 16 µM | TGI [31]: 35.1 µM | GI50 [32]: 20.5 µM | TGI [32]: 56.1 µM | GI50 [33]: 17.3 µM | TGI [33]: 49.9 µM | GI50 [34]: 14.9 µM | TGI [34]: 33.1 µM | GI50 [35]: 12.2 µM | TGI [35]: 28.8 µM | GI50 [36]: 13 µM | TGI [36]: 31 µM | GI50 [37]: 24 µM | TGI [37]: 41.3 µM | GI50 [38]: 4.74 µM | TGI [38]: 38.6 µM | GI50 [39]: 5.11 µM | TGI [39]: 25.4 µM | GI50 [40]: 15.9 µM | TGI [40]: > 83.9 µM | GI50 [41]: 6.88 µM | TGI [41]: > 100 µM | GI50 [42]: 10.4 µM | TGI [42]: 25.2 µM | GI50 [43]: 16.3 µM | TGI [43]: 50.2 µM | GI50 [44]: 25.8 µM | TGI [44]: 82.6 µM | GI50 [45]: 30.9 µM | TGI [45]: 82.1 µM | GI50 [46]: 2.03 µM | TGI [46]: 5.93 µM | GI50 [47]: 5.53 µM | TGI [47]: 16.7 µM | GI50 [48]: 17.8 µM | TGI [48]: 44.9 µM | GI50 [49]: 31.8 µM | TGI [49]: 54 µM | GI50 [50]: 15.8 µM | TGI [50]: 36 µM | GI50 [51]: 11.2 µM | TGI [51]: > 100 µM | GI50 [52]: 21.6 µM | TGI [52]: 71.1 µM | GI50 [53]: 14.1 µM | TGI [53]: 28.4 µM | GI50 [54]: 16.7 µM | TGI [54]: 42.5 µM | GI50 [55]: 22.2 µM | TGI [55]: 52.4 µM | GI50 [56]: 22.4 µM | TGI [56]: 58.4 µM | GI50 [57]: 2.56 µM | TGI [57]: 5.45 µM | GI50 [58]: 20.9 µM | TGI [58]: 69.8 µM
